Read-outs that look alike come from different tables or passages of the source. Blank lines part the entries; values can stand above or below the compound they belong to.
Experiments:
[1] = Blood concentration parameters after administration to mice; format: in vivo; conditions: for AUC / half-life / Cmax: mouse, mice; for half-life: blood half-life
From the text: […] "Cmax" is the maximum concentration achieved, "t1/2" is the half-life or time for half of the absorbed material to disappear from the blood stream.

[2] = Chemical stability in aqueous solution (half-life); format: physicochemical
Experimental: Chemical stability in aqueous solution at pH 7.4 and pH 2.0 is reported as half-life (t1/2). These values are determined by interpolation from a graph of concentration of test substance remaining in solution after storage under selected conditions for various periods of time.

E. coli = experiment: Protective dose (PD50) in infected animals; format: in vivo, mice; parameters: unit not given here
From the text: The PD₅₀ values are protective doses, or the dose of test compound which secures survival of 50% of the animals of a test group, usually mice, during a designated period of time after being infected with an inoculum of infectious organism which will result in death of all inoculated untreated animals during that test period.

Staph. serum = experiment: M.I.C., tube dilution method in Nutrient Broth; format: cell-based
Experimental: (§1) The following procedures illustrate the application of the process of this invention to the preparation of a variety of compounds of Formula V. In many instances, data illustrating the biological activity of the substances as antibiotics are presented. […] It is determined by interpolation from a graph of concentration versus number of cells following exposure of the organism to the test compound under growth conditions. Another parameter such as optical density which is proportional to the cell count may be used. In some instances MIC₉₀ values are also given. The latter refers to 90% growth inhibition.

E. coli A20341 = experiment: M.I.C., tube dilution method in Nutrient Broth; format: cell-based; conditions: unit assumed
Experimental: as §1

P. mir. A9900 = experiment: M.I.C., tube dilution method in Nutrient Broth; format: cell-based; conditions: unit assumed
Experimental: as §1

K. pneu. A20468 = experiment: M.I.C., tube dilution method in Nutrient Broth; format: cell-based; conditions: unit assumed
Experimental: as §1

Ent. clo. A9659 = experiment: M.I.C., tube dilution method in Nutrient Broth; format: cell-based; conditions: unit assumed
Experimental: as §1

Str. pyo. A9604 = experiment: M.I.C., tube dilution method in Nutrient Broth; format: cell-based; conditions: unit assumed
Experimental: as §1

P. vul. A21559 = experiment: M.I.C., tube dilution method in Nutrient Broth; format: cell-based; conditions: unit assumed
Experimental: as §1

Ser. mars. A20019 = experiment: M.I.C., tube dilution method in Nutrient Broth; format: cell-based; conditions: unit assumed
Experimental: as §1

Staph aur. Pen+ = experiment: M.I.C., tube dilution method in Nutrient Broth; format: cell-based; conditions: unit assumed
Experimental: as §1

K. pneu. A9664 = experiment: M.I.C., tube dilution method in Nutrient Broth; format: cell-based; conditions: unit assumed
Experimental: as §1

Staph aur. MR = experiment: M.I.C., tube dilution method in Nutrient Broth; format: cell-based; conditions: unit assumed
Experimental: as §1

Ent. clo. A9656 = experiment: M.I.C., tube dilution method in Nutrient Broth; format: cell-based; conditions: unit assumed
Experimental: as §1

P. morg. A15153 = experiment: M.I.C., tube dilution method in Nutrient Broth; format: cell-based; conditions: unit assumed
Experimental: as §1

P. rett. A22424 = experiment: M.I.C., tube dilution method in Nutrient Broth; format: cell-based; conditions: unit assumed
Experimental: as §1

Str. pneu. A9585 = experiment: M.I.C., tube dilution method in Nutrient Broth; format: cell-based; conditions: unit assumed
Experimental: as §1

Ps. aeru. A9843 = experiment: M.I.C., tube dilution method in Nutrient Broth; format: cell-based; conditions: unit assumed
Experimental: as §1

Staph. aur. A9537 = experiment: M.I.C., tube dilution method in Nutrient Broth; format: cell-based; conditions: unit assumed
Experimental: as §1

Str. faec. A20688 = experiment: M.I.C., tube dilution method in Nutrient Broth; format: cell-based; conditions: unit assumed
Experimental: as §1

E. coli A15119 = experiment: M.I.C., tube dilution method in Nutrient Broth; format: cell-based; conditions: unit assumed
Experimental: as §1

[3] = 37°C, pH 2.0 citric acid buffer, by hplc, read-out: t1/2, pH 2
[4] = 37°C, pH 7.4 phosphate buffer, by uv, read-out: t1/2, pH 7.4 (converted)
[5] = phosphate buffer, pH 7.4, 37°C, pH 7.4 phosphate buffer, by uv, read-out: t1/2, pH 7.4 (converted)
[6] = citric acid buffer, pH 2, 37°C, pH 2.0 citric acid buffer, by hplc, read-out: t1/2, pH 2
[7] = blood, PO, 50 mg/kg, read-out: Cmax, PO/50

Structure (SMILES): C[C@@H](N)C1C(=O)N2C(C(=O)O)=C(SCc3ccccc3)[C@H](C)[C@H]12 (stereo in doubt) [Procedure 12, (5S,6S) 6-(1′R-Aminoethyl)-3-benzylthio-4R-methyl-7-oxo-1-azabicyclo[3.2.0]hept-2-ene-2-carboxylic Acid]
- AUC ([1]; in vivo, PO, 50 mg/kg): 11000 ng·h/mL
- half-life ([1]; in vivo, PO, 50 mg/kg): 0.217 h
- Cmax ([1]; in vivo, PO, 50 mg/kg, read-out: Cmax, PO/50): 33000 ng/mL
- half-life [2, 3]: 2.4 h
- half-life [2, 4]: 4.1 h

- half-life [2, 5]: 160 h
Structure (SMILES): CSC1=C(C(=O)O)N2C(=O)[C@H]([C@H](C)O)[C@H]2[C@H]1C [Procedure 4, (5S,6S) Potassium 6-(1′S-hydroxyethyl)-4R-methyl-3-methylthio-7-oxo-1-azabicyclo[3.2.0]hept-2-ene-2-carboxylate]

- half-life [2, 6]: 2.8 h
- half-life [2, 5]: 4.3 h
Structure (SMILES): CCSC1=C(C(=O)O)N2C(=O)[C@H]([C@@H](C)N)[C@H]2[C@H]1C [Procedure 7, (5S,6R) 6-(1′R-Aminoethyl)-3-ethylthio-4R-methyl-7-oxo-1-azabicyclo[3.2.0]hept-2-ene-2-carboxylic Acid]

- AUC ([1]; blood, PO, 50 mg/kg): 5000 ng·h/mL
- Cmax [1, 7]: 9000 ng/mL
- half-life ([1]; PO, 50 mg/kg): 0.3 h
- half-life [2, 6]: 3.53 h
- half-life ([2]; phosphate buffer, pH 7.4, 22°C, pH 7.4 phosphate buffer, read-out: half-life (converted)): 39 h
- half-life [2, 5]: 6.8 h
Structure (SMILES): CSC1=C(C(=O)O)N2C(=O)[C@H]([C@@H](C)N)[C@H]2[C@H]1C [Procedure 9, (5S,6R) 6-(1′R-Aminoethyl)-4R-methyl-3-methylthio-7-oxo-1-azabicyclo[3.2.0]hept-2-ene-2-carboxylic Acid]
- PD50, E. coli (E. coli; IM): 25.00
- PD50, E. coli (E. coli; PO): 12.50

- U.R. ([1]; listed after the PO/50 lines, abbreviation not defined): 5
- half-life ([1]; 20 mg/kg, IM/20): 0.2 h
- AUC ([1]; blood, 20 mg/kg, IM/20): 7000 ng·h/mL
- Cmax ([1]; blood, 20 mg/kg, IM/20, read-out: Cmax, IM/20): 18000 ng/mL
- AUC ([1]; blood, PO, 50 mg/kg): 21000 ng·h/mL
- Cmax [1, 7]: 25000 ng/mL
- half-life ([1]; PO, 50 mg/kg): 0.383 h
- half-life [2, 6]: 2.4 h
- half-life [2, 5]: 3 h
Structure (SMILES): C[C@@H](N)[C@H]1C(=O)N2C(C(=O)O)=C(SCc3cccnc3)[C@H](C)[C@H]12 [Procedure 21, (5S,6R)-6-(1′R-Aminoethyl)-4R-methyl-3-[(pyridin-3-yl)methyl-thio]-7-oxo-1-azabicyclo[3,2,0]hept-2-ene-2-carboxylic Acid]
- PD50, E. coli (E. coli; PO): 8.10

Structure (SMILES): C[C@@H](N)[C@H]1C(=O)N2C(C(=O)O)=C(SCCF)[C@H](C)[C@H]12 [Procedure 23]
- M.I.C. Staph. serum (Staph. serum): 16.000

- half-life [2, 6]: 2.93 h
- half-life [2, 5]: 2.8 h
Structure (SMILES): C[C@@H](N)[C@H]1C(=O)N2C(C(=O)O)=C(SCCC#N)[C@H](C)[C@H]12 [Procedure 26, (5S,6R)-6-(1′R-Aminoethyl)-3-(2-cyanoethylthio)-4R-methyl-7-oxo-1-azabicyclo[3.2.0]hept-2-ene-2-carboxylic Acid]

Structure (SMILES): C[C@H](N)[C@H]1C(=O)N2C(C(=O)O)=C(SCCC#N)[C@H](C)[C@H]12 [Procedure 35, (5S,6R) 6-(1′S-Aminoethyl)-3-(2-cyanoethylthio)-4R-methyl-7-oxo-1-azabicyclo[3.2.0]hept-2-ene-2-carboxylic Acid]
- half-life [2, 3]: 0.583 h
- half-life [2, 4]: 1.5 h

Structure (SMILES): CSC1=C(C(=O)[O-])N2C(=O)[C@H]([C@@H](C)[N+](C)(C)C)[C@H]2[C@H]1C [Procedure 36]
- M.I.C. Staph. serum (Staph. serum): 63.000

Structure (SMILES): CSC1=C(C(=O)O)N2C(=O)[C@H]([C@@H](C)NC(=O)CNC(=O)[C@@H](N)CC(C)C)[C@H]2[C@H]1C [Procedure 37]
- M.I.C. Staph. serum (Staph. serum): 16.000

- Cmax [1, 7]: 2000 ng/mL
- half-life [2, 6]: < 0.0833 h
- half-life [2, 5]: 29 h
Structure (SMILES): CSC1=C(C(=O)O)N2C(=O)[C@H]([C@@H](C)NC(=O)CNC(=O)[C@H](C)N)[C@H]2[C@H]1C [Procedure 38, (5S,6R) 6-(1′R-(L-alanylglycyl)aminoethyl)-4R-methyl-3-methylthio-7-oxo-1-azabicyclo[3.2.0]hept-2-ene--2-carboxylic Acid]
- PD50, E. coli (E. coli; IM): 12.50
- PD50, E. coli (E. coli; PO): 25.00

- Cmax [1, 7]: 2000 ng/mL
- half-life [2, 6]: < 0.0833 h
- half-life [2, 5]: 46 h
Structure (SMILES): CSC1=C(C(=O)O)N2C(=O)[C@H]([C@@H](C)NC(=O)[C@H](CC(C)C)NC(=O)[C@H](C)N)[C@H]2[C@H]1C [Procedure 39, (5S,6R)-6-{1′R-(L-Alanyl-L-leucyl)aminoethyl}-4R-methyl-3-methylthio-7-oxo-1-azabicyclo[3.2.0]hept-2-ene-2-carboxylic Acid]
- PD50, E. coli (E. coli; IM): 25.00
- PD50, E. coli (E. coli; PO): 25.00

Structure (SMILES): CC[C@H]1C(SC)=C(C(=O)O)N2C(=O)[C@H]([C@H](C)N)[C@@H]12 [Procedure 49, (5S,6R) 6-(1′S-Aminoethyl)-4R-ethyl-3-methylthio-7-oxo-1-azabicyclo[3.2.0]hept-2-ene-2-carboxylic Acid]
- M.I.C. Staph. serum (Staph. serum): 63.000

Structure (SMILES): CC[C@H]1C(SCc2cn(C)nn2)=C(C(=O)O)N2C(=O)[C@H]([C@H](C)N)[C@@H]12 [Procedure 52, (5S,6R) 6-(1′S-Aminoethyl)-4R-ethyl-3-[(1-metyl-1,2,3-triazol-4-yl)-methylthio]-7-oxo-1-azabicyclo[3.2.0]hept-2-ene-2-carboxylate]
- M.I.C. E. coli A20341 (E. coli A20341): 0.5 µg/mL
- M.I.C. P. mir. A9900 (P. mir. A9900): 0.25 µg/mL
- M.I.C. K. pneu. A20468 (K. pneu. A20468): 2 µg/mL
- M.I.C. Ent. clo. A9659 (Ent. clo. A9659): 2 µg/mL
- M.I.C. Staph. serum (Staph. serum; unit assumed): 63 µg/mL
- M.I.C. Str. pyo. A9604 (Str. pyo. A9604): 16 µg/mL
- M.I.C. P. vul. A21559 (P. vul. A21559): 0.25 µg/mL
- M.I.C. Ser. mars. A20019 (Ser. mars. A20019): 1 µg/mL
- M.I.C. Staph aur. Pen+ (Staph aur. Pen+): 125 µg/mL
- M.I.C. K. pneu. A9664 (K. pneu. A9664): 1 µg/mL
- M.I.C. Staph aur. MR (Staph aur. MR): 125 µg/mL
- M.I.C. Ent. clo. A9656 (Ent. clo. A9656): 1 µg/mL
- M.I.C. P. morg. A15153 (P. morg. A15153): 0.5 µg/mL
- M.I.C. P. rett. A22424 (P. rett. A22424): 4 µg/mL
- M.I.C. Str. pneu. A9585 (Str. pneu. A9585): 8 µg/mL
- M.I.C. Ps. aeru. A9843 (Ps. aeru. A9843): 32 µg/mL
- M.I.C. Staph. aur. A9537 (Staph. aur. A9537): 32 µg/mL
- M.I.C. Str. faec. A20688 (Str. faec. A20688): 125 µg/mL
- M.I.C. E. coli A15119 (E. coli A15119): 0.5 µg/mL

Structure (SMILES): CSC1=C(C(=O)O)N2C(=O)[C@H]([C@H](C)N)[C@H]2[C@H]1C [Procedure 57, (5S,6R) 6-(1S-Aminoethyl)-4R-methyl-3-methylthio-7-oxo-1-1-azabicyclo[3.2.0]hept-2-ene-2-carboxylate]
- M.I.C. Staph. serum (Staph. serum): 16.000

Structure (SMILES): C[C@H](N)[C@H]1C(=O)N2C(C(=O)O)=C(SCc3cccnc3)[C@H](C)[C@H]12 [Procedure 58]
- M.I.C. Staph. serum (Staph. serum): 4.000

Structure (SMILES): CSC1=C(C(=O)[O-])N2C(=O)[C@H]([C@H](C)[N+](C)(C)C)[C@H]2[C@H]1C [Procedure 59, (5S,6R) 6-(1′S-N-Trimethylammonium-ethyl)-4R-methyl-3-methylthio-7-oxo-1-azabicyclo[3.2.0]hept-2-ene-2-carboxylate]
- M.I.C. Staph. serum (Staph. serum): 8.000

Structure (SMILES): CCSC1=C(C(=O)O)N2C(=O)[C@H]([C@H](C)N)[C@H]2[C@H]1C [Procedure 60, (5S,6R) 6-(1′S-aminoethyl)-3-ethylthio-4R-methyl-7-oxo-1-azabicyclo[3.2.0]hept-2-ene-2-carboxylic acid]
- M.I.C. Staph. serum (Staph. serum): 8.000

Structure (SMILES): CSC1=C(C(=O)O)N2C(=O)[C@H]([C@H](C)NC(=O)CNC(=O)[C@@H](N)CC(C)C)[C@H]2[C@H]1C [Procedure 61, (5S,6R) 6-(1′S-(L-Leucylglycyl)aminoethyl)-4R-methyl-3-methylthio-7-oxo-1-azabicyclo[3.2.0]hept-2-ene-2-carboxylic Acid]
- M.I.C. Staph. serum (Staph. serum): 63.000
